Source: the SangsterLogP compilation

assay: method code SF-GLC, from DOI: 10.1016/0045-6535(89)90321-4

SMILES | logP
Clc1cc(Cl)c2oc3cc(Cl)c(Cl)cc3c2c1 | 6.73
Clc1cc2oc3c(Cl)cc(Cl)c(Cl)c3c2cc1Cl | 6.26
Clc1cc2c(cc1Cl)Oc1cc(Cl)c(Cl)cc1O2 | 6.42
Clc1cc2c(c(Cl)c1Cl)Oc1c(Cl)ccc(Cl)c1O2 | 6.24
Clc1cc(Cl)c2c(c1)Oc1cc(Cl)c(Cl)cc1O2 | 6.3
Clc1cc(Cl)c2oc3c(Cl)cc(Cl)cc3c2c1 | 6.17
Clc1ccc(Cl)c2c1oc1c(Cl)ccc(Cl)c12 | 5.6
Clc1cc(Cl)c2c(c1)oc1c(Cl)c(Cl)cc(Cl)c12 | 6.33
Clc1cc(Cl)c2c(c1)Oc1c(ccc(Cl)c1Cl)O2 | 6.43
Clc1cc2c(cc1Cl)Oc1c(Cl)ccc(Cl)c1O2 | 6.39
Clc1cc(Cl)c2c(c1Cl)Oc1c(Cl)cccc1O2 | 6.1
Clc1cc(Cl)c2c(c1)Oc1c(Cl)cc(Cl)cc1O2 | 6.29
Clc1cc2c(cc1Cl)Oc1c(Cl)c(Cl)cc(Cl)c1O2 | 6.2
Clc1cc2c(oc3c(Cl)c(Cl)c(Cl)c(Cl)c32)c(Cl)c1Cl | 7.92
Clc1ccc2c(c1)Oc1c(Cl)c(Cl)c(Cl)c(Cl)c1O2 | 6.6
Clc1cc2c(cc1Cl)Oc1c(cc(Cl)c(Cl)c1Cl)O2 | 6.64
Clc1cccc2c1Oc1c(Cl)c(Cl)c(Cl)c(Cl)c1O2 | 6.3
Clc1ccc2oc3c(Cl)c(Cl)c(Cl)c(Cl)c3c2c1 | 6.79

SMILES | logP
Clc1c(Cl)c(Cl)c2c(oc3ccccc32)c1Cl | 6.17
Clc1cc(Cl)c2c(c1)Oc1cc(Cl)c(Cl)c(Cl)c1O2 | 6.4
Clc1cc2c(c(Cl)c1Cl)Oc1ccc(Cl)c(Cl)c1O2 | 6.74
Clc1cc(Cl)c2c(c1)oc1cc(Cl)cc(Cl)c12 | 6.34
Clc1ccc2c(c1)Oc1c(Cl)c(Cl)cc(Cl)c1O2 | 6.25
Clc1cc2oc3c(Cl)cccc3c2c(Cl)c1Cl | 6.15
Clc1cc2c(cc1Cl)Oc1c(ccc(Cl)c1Cl)O2 | 6.38
Clc1cc(Cl)c2c(c1)oc1c(Cl)cc(Cl)cc12 | 6.37
Clc1ccc2c(c1)Oc1c(cc(Cl)c(Cl)c1Cl)O2 | 6.1
Clc1cc(Cl)c2c(c1)oc1c(Cl)cc(Cl)c(Cl)c12 | 6.19
Clc1cc2c(oc3c(Cl)ccc(Cl)c32)c(Cl)c1Cl | 6.53
Clc1cc(Cl)c2c(oc3cccc(Cl)c32)c1Cl | 5.89
Clc1ccc2c(c1)oc1c(Cl)c(Cl)c(Cl)cc12 | 6.06
Clc1cc2oc3c(Cl)c(Cl)ccc3c2cc1Cl | 6.31
Clc1cc(Cl)c2c(c1)Oc1c(cc(Cl)c(Cl)c1Cl)O2 | 6.53
Clc1ccc2c(oc3c(Cl)cc(Cl)c(Cl)c32)c1Cl | 6.27
Clc1cc2c(c(Cl)c1Cl)Oc1c(Cl)cccc1O2 | 6.39
Clc1ccc2oc3c(Cl)cc(Cl)c(Cl)c3c2c1 | 6.31

Further lines, results first:

logP | SMILES
6.31 | Clc1cc(Cl)c2c(oc3c(Cl)cccc32)c1Cl
6.19 | Clc1ccc2c(oc3c(Cl)c(Cl)cc(Cl)c32)c1Cl
6.47 | Clc1cc2c(oc3c(Cl)c(Cl)ccc32)c(Cl)c1Cl
6.33 | Clc1cc(Cl)c2oc3cc(Cl)c(Cl)c(Cl)c3c2c1
6.26 | Clc1cc2oc3c(Cl)c(Cl)ccc3c2c(Cl)c1Cl
6.85 | Clc1cc(Cl)c2c(c1Cl)Oc1c(Cl)cc(Cl)c(Cl)c1O2
6.85 | Clc1cc(Cl)c2c(c1Cl)Oc1c(Cl)c(Cl)cc(Cl)c1O2
6.25 | Clc1ccc2c(c1)Oc1c(Cl)cc(Cl)c(Cl)c1O2
6.39 | Clc1cc(Cl)c2c(c1)Oc1cc(Cl)cc(Cl)c1O2
6.15 | Clc1ccc2oc3cc(Cl)c(Cl)c(Cl)c3c2c1
6.11 | Clc1cc2c(oc3c(Cl)cccc32)c(Cl)c1Cl
6.59 | Clc1cc(Cl)c2oc3c(Cl)ccc(Cl)c3c2c1Cl
6.38 | Clc1ccc(Cl)c2c1Oc1c(Cl)ccc(Cl)c1O2
6.86 | Clc1cc2c(c(Cl)c1Cl)Oc1cccc(Cl)c1O2
6.6 | Clc1cc(Cl)c2c(c1Cl)Oc1c(Cl)ccc(Cl)c1O2
6.24 | Clc1cc(Cl)c2oc3c(Cl)c(Cl)cc(Cl)c3c2c1
6.1 | Clc1ccc2c(c1)Oc1cc(Cl)c(Cl)c(Cl)c1O2
6.86 | Clc1cc(Cl)c2c(c1)Oc1ccc(Cl)c(Cl)c1O2
7.59 | Clc1cc2c(c(Cl)c1Cl)Oc1c(Cl)cc(Cl)c(Cl)c1O2
6.53 | Clc1ccc2c(c1)oc1c(Cl)c(Cl)c(Cl)c(Cl)c12

logP | SMILES
6.34 | Clc1cc(Cl)c2c(c1)oc1cc(Cl)c(Cl)cc12
6.06 | Clc1cc2oc3cccc(Cl)c3c2c(Cl)c1Cl
6.17 | Clc1cc2c(oc3cccc(Cl)c32)c(Cl)c1Cl
6.25 | Clc1cc(Cl)c2c(c1)Oc1c(Cl)ccc(Cl)c1O2
6.34 | Clc1cc(Cl)c2c(oc3c(Cl)ccc(Cl)c32)c1Cl
6.23 | Clc1cc2oc3ccc(Cl)c(Cl)c3c2cc1Cl
6.34 | Clc1cc(Cl)c2oc3c(Cl)cc(Cl)c(Cl)c3c2c1
6.23 | Clc1ccc2c(c1)oc1c(Cl)c(Cl)cc(Cl)c12
6.51 | Clc1cc(Cl)c2c(oc3ccc(Cl)c(Cl)c32)c1Cl
6.25 | Clc1cc(Cl)c2oc3c(Cl)c(Cl)ccc3c2c1
6.1 | Clc1cc(Cl)c2c(c1Cl)Oc1cccc(Cl)c1O2
6.42 | Clc1cc2c(oc3ccc(Cl)c(Cl)c32)c(Cl)c1Cl
6.13 | Clc1ccc2oc3c(Cl)c(Cl)cc(Cl)c3c2c1
6.25 | Clc1ccc2c(oc3ccc(Cl)c(Cl)c32)c1Cl
7.59 | Clc1cc2c(c(Cl)c1Cl)Oc1c(Cl)c(Cl)cc(Cl)c1O2
6.59 | Clc1cc(Cl)c2oc3c(Cl)c(Cl)c(Cl)cc3c2c1
6.25 | Clc1cc(Cl)c2c(c1)oc1ccc(Cl)c(Cl)c12
6.85 | Clc1cc(Cl)c2c(c1)Oc1c(Cl)c(Cl)c(Cl)c(Cl)c1O2
6.15 | Clc1ccc2c(oc3c(Cl)ccc(Cl)c32)c1Cl
